Results reported in patent publication US20090155187A1, “DRUG FOR INHIBITING VASCULAR INTIMAL HYPERPLASIA” (Nissan Chemical Industries Ltd., priority 2004, published 2009).

System: rat femoral arteries (intimal hyperplasia)
Assay: Intimal hyperplasia in rat femoral arteries formed by photosensitization (rose bengal and green light)
Type: in vivo, Wistar rat
Details: left femoral artery, vs solvent group
Experimental: Under intraperitoneal anesthesia with pentobarbital (50 mg/mL/kg), a catheter was placed in the left cervical vein of a Wistar rat. The left femoral artery was detached, and the probe of an ultrasonic pulse Doppler blood flowmeter was placed on the artery. The artery proximal to the site of placement of the probe was irradiated with green light (540 nm, 800,000 1×) at a distance of 5 mm from the artery. A steady blood flow was confirmed after 10 minutes of start of the irradiation, and 15 mg/mL/kg of rose bengal was injected into the left cervical vein to damage the vascular endothelium. Then, the incision was sutured. Rats were divided in order as a solvent group (9 rats), a group (10 rats) to which 10 mg/kg of Compound A was administered, and a group (10 rats) to which 300 mg/kg of Cilostazol was administered. The drugs were suspended in 0.5% methylcellulose solution, adjusted so as to be administered at a dose of 5 mL/kg, and orally administered on the day of operation after confirmation of postoperative arousal, and then orally administered once a day in the morning for the subsequent three weeks. Three weeks after the operation, the left femoral artery was exposed under anesthesia. […] The medial areas and the intimal area in transverse sections of the femoral arteries were measured as indices of intimal hyperplasia with a computer image analyzer, and the ratio of the […] (the I/M ratio) was calculated. The results are expressed as average±standard deviation. The intimal areas and the I/M ratios were analyzed for distribution uniformity in each group by Bartlett's test. If the distribution was uniform, one-way analysis of variance was done, and the averages for the solvent group and the respective drug-treated groups were analyzed by Dunnett's test to determine if there was significant difference between them. When the distribution was not uniform, the Kruskal-Wallis rank test was done, and if there was significant difference between the solvent group and a drug-treated group, the average ranks for the two groups were analyzed by Dunnett's test. […]

[1] = 10 mg/kg orally once a day for three weeks, Dunnett's test p<0.05

Row | Structure (SMILES) | I/M ratio [1] | area of the tunica intima (intimal area) [1] | intimal hyperplasia inhibitory action (intimal area and I/M ratio) (300 mg/kg orally once a day for three weeks)
1 | Cl.O=c1[nH]nc(OCCCc2ccc(Cl)cc2)c(NCc2cccnc2)c1Br [Compound A, 4-bromo-6-[3-(4-chlorophenyl)propoxy]-5-(3-pyridylmethylamino)-3(2H)-pyridazinone hydrochloride] | significantly reduced | significantly reduced | –
2 | O=C1CCc2cc(OCCCCc3nnnn3C3CCCCC3)ccc2N1 [Cilostazol, reference compound] | – | – | showed no action
